Measurements taken from patent publication US7615361B2, “Toxicity screening methods” (Ceetox, Inc., priority 2006, dated 2009).

Assays:
[1] = Cell number (propidium iodide); assay type: cell-based; details: neonatal rat cardiomyocytes; rat cardiomyocytes (CM), 24 HR exposure; read-out: Cell Number TC50
Procedure: One test compound (Compound A) was received as dry powder and evaluated for potential cytotoxicity in a battery of in vitro assays. The compound was tested using both rat cardiomyocytes (CM) from rat neonates and a rat hepatoma (H4IIE) cell line. […] Camptothecin and rotenone were included as positive control compounds. The cell supernatant or the cells themselves were harvested for biochemical analysis. General cytotoxicity was evaluated by monitoring membrane integrity, mitochondrial function, cell proliferation, oxidative stress, and apoptosis. In addition, interaction with P-glycoprotein (PgP) on H4IIE cells and solubility of the test compound were also assessed. The means of each exposure group (n=3-7) were calculated for each assay performed. Intra assay variation well-to-well was typically less than 10% with plate to plate variation typically less than 20%.
Cell Proliferation: Cell proliferation in each well was measured with propidium iodide (PI). […] The 15 nm shift enhances PI fluorescence approximately 20 times while the excitation maxima are shifted 30-40 nm. During method development experiments, it was determined that Triton-X-100 was the best solution to permeabilize the H4IIE cells thereby allowing the PI access to intracellular RNA and DNA. Fluorescence was measured using a Packard Fusion plate reader or equivalent reader at 540 nm excitation and 610 nm emission. […]

[2] = Intracellular total glutathione (GSH); details: human
Procedure: Intracellular Glutathione (GSH) Levels: Intracellular glutathione levels were determined essentially as described by Griffith (1980) with modifications. At the end of the exposure period, the medium was removed from the cells and metaphosphoric acid (MPA) was added to each well. Plates were then shaken for 5 min at room temperature and stored at −20° C. until needed.
The sample plates were thawed just prior to analysis and centrifuged at >2000×g for at least 2 min. Sample aliquots were removed and transferred to a clean 96-well plate along with appropriate standard curve controls. Sample pH was neutralized just prior to analysis and each well received an aliquot of sodium phosphate reaction buffer containing EDTA, DTNB, NADPH, and glutathione reductase. The plates were mixed for 15-30 min at room temperature and glutathione content was determined calorimetrically with a Packard Fusion or equivalent reader at 415 nm.
Intracellular Glutathione (GSH) Levels: The assay is based on the concept that all GSH is oxidized to GSSG by DTNB reagent. Two molecules of GSH are required to make one molecule of GSSG. Total GSH was determined by reducing GSSG to 2GSH with glutathione reductase. A standard curve was prepared with oxidized glutathione (GSSG) over a range of concentrations. These concentrations are then converted to glutathione equivalents (GSX) essentially by multiplying the GSSG standard concentrations by 2. The amount of GSX expressed as pmoles/well was determined using the standard curve and regression analysis.
The test compound consisted of two parts mixed in a constant ratio of 5:1. The final test mixture consisted of Test mix 1 and Test mix 2, which were received as frozen solutions. The test mixture was tested in a ratio of 5:1 COMP A in five different cell types which included the following: SK-MEL28, human hepatocytes, HUVEC, C32, and NHEM cells. Cells were seeded into 96-well plates and cultured in medium containing 10% bovine serum. Following an equilibration period of 48 hr, the cells were treated with the test compound mix at concentrations of COMP A (μg/mL)=(250:50), (125:25), (25:12.5), (12.5:2.5), (2.5:1.25), (1.25:0.25), and (0.25:0.05) for 24 hr (overnight) at 37° C. in 5% CO2. […] Following an equilibration period of 4 hr, the cells were treated with the test compound mix at concentrations of COMP A (μg/mL)=(250:50), (125:25), (25:12.5), (12.5:2.5), (2.5:1.25), (1.25:0.25), and (0.25:0.05) for 24 hr (overnight) at 37° C. in 5% CO2.
Experimental Protocol: The test compounds were shipped on dry ice for testing. The compounds were stored frozen at −80° C. until needed. Dosing solutions were prepared in complete culture medium. SK-MEL28, human hepatocytes, HUVEC, C32, and NHEM cells were used as the test systems. Cells were seeded into 96-well plates and allowed to equilibrate for approximately 48 hr. Following the equilibration period the cells were exposed to the test compound mix at concentrations of COMP A (μg/mL)=(250:50), (125:25), (25:12.5), (12.5:2.5), (2.5:1.25), (1.25:0.25), and (0.25:0.05). Solubility was determined by Nephalometry techniques immediately after dosing and prior to harvesting the cells at 24 hr. Following the exposure period, the cells or their supernatant (culture medium) were analyzed for changes in cell proliferation, membrane leakage, mitochondrial function, oxidative stress, and apoptosis. The resultant exposure concentration response curves were graphed and analyzed for determining the concentration that produced a half maximal response or TC50.

CC[C@@]1(O)C(=O)OCc2c1cc1n(c2=O)Cc2cc3ccccc3nc2-1 [CAMPTOTHECIN, Camptothecin]
CC50 at 24 h [1]: 293 µM
CC50 at 24 h ([2]; C32 cells): 1 µM
CC50 at 24 h ([2]; HUVEC cells): 1 µM
CC50 at 24 h ([2]; human hepatocytes): 44 µM
